Publication PMC12858467, “In vitro toxicokinetics and metabolic profiling of methoxycathinones and methylthiocathinones using human liver systems and hyphenated mass spectrometry” (Archives of Toxicology, 2025)

Assays:
Format in all cases: in vitro ADME
Conditions in all cases: 30 min, 37 °C
CYP1A2 = biological target: T1, CYP1A2 (Homo sapiens, UniProt P05177); assay: Monooxygenases activity screening, CYP1A2; parameters: key: +, detected; -, not detected
T1 construct: purchased Discovery Life Sciences (Huntsville, LA, USA); host or cells: baculovirus-infected insect cells (microsomes, Supersomes)
T1 sequence (P05177 1-516): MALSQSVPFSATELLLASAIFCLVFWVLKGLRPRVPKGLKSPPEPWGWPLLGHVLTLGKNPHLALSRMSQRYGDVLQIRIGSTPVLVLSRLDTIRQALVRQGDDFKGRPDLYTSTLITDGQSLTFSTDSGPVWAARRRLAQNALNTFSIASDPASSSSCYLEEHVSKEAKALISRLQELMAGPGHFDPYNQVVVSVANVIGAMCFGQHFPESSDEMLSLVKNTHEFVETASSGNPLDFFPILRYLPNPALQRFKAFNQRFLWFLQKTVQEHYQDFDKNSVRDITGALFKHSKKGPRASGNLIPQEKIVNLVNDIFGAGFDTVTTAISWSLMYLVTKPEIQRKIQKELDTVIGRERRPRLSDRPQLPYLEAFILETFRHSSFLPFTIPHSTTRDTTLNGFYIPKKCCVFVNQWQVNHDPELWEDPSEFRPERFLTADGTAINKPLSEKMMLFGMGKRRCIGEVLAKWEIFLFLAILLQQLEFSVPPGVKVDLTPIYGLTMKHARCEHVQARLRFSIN
Experimental: (§1) For incubations with CYP2A6 or CYP2C9, phosphate buffer was replaced with 90 mM Tris buffer, according to the manufacturer’s guideline. […] All incubations were done in duplicate and concentrations were fixed. Verapamil (25 µM) was incubated as a positive control.

CYP2A6 = biological target: T2, CYP2A6 (Homo sapiens, UniProt P11509); assay: Monooxygenases activity screening, CYP2A6; parameters: key: +, detected; -, not detected
T2 construct: purchased Discovery Life Sciences (Huntsville, LA, USA); host or cells: baculovirus-infected insect cells (microsomes, Supersomes)
T2 sequence (P11509 1-494): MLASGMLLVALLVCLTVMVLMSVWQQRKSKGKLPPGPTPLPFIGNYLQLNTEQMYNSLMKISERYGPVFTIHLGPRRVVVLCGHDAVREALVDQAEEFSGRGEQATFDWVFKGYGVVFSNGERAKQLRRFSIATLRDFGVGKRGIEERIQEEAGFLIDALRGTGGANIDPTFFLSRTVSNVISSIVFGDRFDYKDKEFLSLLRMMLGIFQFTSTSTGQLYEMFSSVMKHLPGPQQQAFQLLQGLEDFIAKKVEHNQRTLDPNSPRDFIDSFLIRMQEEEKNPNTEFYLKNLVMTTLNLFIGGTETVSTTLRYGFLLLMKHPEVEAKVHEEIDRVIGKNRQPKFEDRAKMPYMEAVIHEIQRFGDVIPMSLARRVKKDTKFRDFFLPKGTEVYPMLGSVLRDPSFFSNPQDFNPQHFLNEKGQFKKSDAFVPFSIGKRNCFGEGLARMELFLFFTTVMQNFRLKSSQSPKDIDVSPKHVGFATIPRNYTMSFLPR
Experimental: as §1

CYP2B6 = biological target: T3, CYP2B6 (Homo sapiens, UniProt P20813); assay: Monooxygenases activity screening, CYP2B6; parameters: key: +, detected; -, not detected
T3 construct: purchased Discovery Life Sciences (Huntsville, LA, USA); host or cells: baculovirus-infected insect cells (microsomes, Supersomes)
T3 sequence (P20813 1-491): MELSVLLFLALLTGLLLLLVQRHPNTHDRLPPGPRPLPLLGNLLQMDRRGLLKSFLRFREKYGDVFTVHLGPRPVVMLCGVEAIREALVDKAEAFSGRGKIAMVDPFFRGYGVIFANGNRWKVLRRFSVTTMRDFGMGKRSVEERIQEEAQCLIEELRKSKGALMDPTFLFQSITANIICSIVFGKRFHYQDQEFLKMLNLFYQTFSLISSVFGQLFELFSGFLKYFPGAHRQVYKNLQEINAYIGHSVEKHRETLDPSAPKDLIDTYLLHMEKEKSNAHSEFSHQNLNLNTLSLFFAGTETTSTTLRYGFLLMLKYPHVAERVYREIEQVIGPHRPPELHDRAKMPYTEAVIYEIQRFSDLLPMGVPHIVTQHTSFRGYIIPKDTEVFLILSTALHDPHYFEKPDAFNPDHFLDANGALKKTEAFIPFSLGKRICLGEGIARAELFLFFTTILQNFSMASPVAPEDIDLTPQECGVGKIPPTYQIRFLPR
Experimental: as §1

CYP2C8 = biological target: T4, CYP2C8 (Homo sapiens, UniProt P10632); assay: Monooxygenases activity screening, CYP2C8; parameters: key: +, detected; -, not detected
T4 construct: purchased Discovery Life Sciences (Huntsville, LA, USA); host or cells: baculovirus-infected insect cells (microsomes, Supersomes)
T4 sequence (P10632 1-490): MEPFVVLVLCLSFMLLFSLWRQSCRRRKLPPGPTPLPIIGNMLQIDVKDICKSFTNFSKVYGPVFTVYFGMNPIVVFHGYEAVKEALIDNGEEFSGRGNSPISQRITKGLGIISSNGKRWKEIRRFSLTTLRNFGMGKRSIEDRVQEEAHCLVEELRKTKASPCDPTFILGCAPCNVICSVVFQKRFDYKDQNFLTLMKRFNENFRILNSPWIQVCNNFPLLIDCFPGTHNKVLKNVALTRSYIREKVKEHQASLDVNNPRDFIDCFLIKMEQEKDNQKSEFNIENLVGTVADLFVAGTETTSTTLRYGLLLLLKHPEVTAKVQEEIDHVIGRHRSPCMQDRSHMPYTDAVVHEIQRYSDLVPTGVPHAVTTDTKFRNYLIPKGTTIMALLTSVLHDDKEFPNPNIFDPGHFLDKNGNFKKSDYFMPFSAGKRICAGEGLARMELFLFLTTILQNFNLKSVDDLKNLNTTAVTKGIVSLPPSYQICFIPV
Experimental: as §1

CYP2C9 = biological target: T5, CYP2C9 (Homo sapiens, UniProt P11712); assay: Monooxygenases activity screening, CYP2C9; parameters: key: +, detected; -, not detected
T5 construct: purchased Discovery Life Sciences (Huntsville, LA, USA); host or cells: baculovirus-infected insect cells (microsomes, Supersomes)
Experimental: as §1

CYP2C19 = biological target: T6, CYP2C19 (Homo sapiens, UniProt P33261); assay: Monooxygenases activity screening, CYP2C19; parameters: key: +, detected; -, not detected
T6 construct: purchased Discovery Life Sciences (Huntsville, LA, USA); host or cells: baculovirus-infected insect cells (microsomes, Supersomes)
Experimental: as §1

CYP2D6 = biological target: T7, CYP2D6 (Homo sapiens, UniProt P10635); assay: Monooxygenases activity screening, CYP2D6; parameters: key to one-step metabolite detected in CYP2D6 incubation: +, detected; -, not detected
T7 construct: purchased Discovery Life Sciences (Huntsville, LA, USA); host or cells: baculovirus-infected insect cells (microsomes, Supersomes)
Experimental: as §1

CYP2E1 = biological target: T8, CYP2E1 (Homo sapiens, UniProt P05181); assay: Monooxygenases activity screening, CYP2E1; parameters: key: +, detected; -, not detected
T8 construct: purchased Discovery Life Sciences (Huntsville, LA, USA); host or cells: baculovirus-infected insect cells (microsomes, Supersomes)
Experimental: as §1

CYP3A4 = biological target: T9, CYP3A4 (Homo sapiens, UniProt P08684); assay: Monooxygenases activity screening, CYP3A4; parameters: key: +, detected; -, not detected
T9 construct: purchased Discovery Life Sciences (Huntsville, LA, USA); host or cells: baculovirus-infected insect cells (microsomes, Supersomes)
Experimental: as §1

CYP3A5 = biological target: T10, CYP3A5 (Homo sapiens, UniProt P20815); assay: Monooxygenases activity screening, CYP3A5; parameters: key: +, detected; -, not detected
T10 construct: purchased Discovery Life Sciences (Huntsville, LA, USA); host or cells: baculovirus-infected insect cells (microsomes, Supersomes)
Experimental: as §1

[1] = biological target: T11, flavin-containing monooxygenase 3 (FMO3) (Homo sapiens, UniProt P31513); assay: Monooxygenases activity screening, FMO3; parameters: key: +, detected; -, not detected
T11 construct: purchased Discovery Life Sciences (Huntsville, LA, USA); host or cells: baculovirus-infected insect cells (microsomes, Supersomes)
T11 sequence (P31513 1-532): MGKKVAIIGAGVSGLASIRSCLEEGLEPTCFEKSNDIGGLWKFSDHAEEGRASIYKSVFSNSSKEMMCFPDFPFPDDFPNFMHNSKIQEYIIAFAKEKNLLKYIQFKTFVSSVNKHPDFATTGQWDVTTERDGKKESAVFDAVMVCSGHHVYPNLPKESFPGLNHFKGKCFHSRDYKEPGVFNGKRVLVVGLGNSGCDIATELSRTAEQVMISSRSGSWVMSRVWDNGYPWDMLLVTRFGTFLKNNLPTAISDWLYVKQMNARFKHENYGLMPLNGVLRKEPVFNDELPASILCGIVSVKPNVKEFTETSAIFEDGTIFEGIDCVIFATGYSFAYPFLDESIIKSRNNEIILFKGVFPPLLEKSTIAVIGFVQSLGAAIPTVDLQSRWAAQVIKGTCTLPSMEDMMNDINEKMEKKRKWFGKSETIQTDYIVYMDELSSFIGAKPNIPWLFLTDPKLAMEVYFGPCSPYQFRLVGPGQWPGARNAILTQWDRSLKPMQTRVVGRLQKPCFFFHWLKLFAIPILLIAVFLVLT
Experimental: as §1

[2] = substrate 4MeO-NE-BP 25 µM, Table S3.1
[3] = substrate 4MeO-αP-BP 25 µM, Table S3.2

T5 sequence (P11712 whole entry): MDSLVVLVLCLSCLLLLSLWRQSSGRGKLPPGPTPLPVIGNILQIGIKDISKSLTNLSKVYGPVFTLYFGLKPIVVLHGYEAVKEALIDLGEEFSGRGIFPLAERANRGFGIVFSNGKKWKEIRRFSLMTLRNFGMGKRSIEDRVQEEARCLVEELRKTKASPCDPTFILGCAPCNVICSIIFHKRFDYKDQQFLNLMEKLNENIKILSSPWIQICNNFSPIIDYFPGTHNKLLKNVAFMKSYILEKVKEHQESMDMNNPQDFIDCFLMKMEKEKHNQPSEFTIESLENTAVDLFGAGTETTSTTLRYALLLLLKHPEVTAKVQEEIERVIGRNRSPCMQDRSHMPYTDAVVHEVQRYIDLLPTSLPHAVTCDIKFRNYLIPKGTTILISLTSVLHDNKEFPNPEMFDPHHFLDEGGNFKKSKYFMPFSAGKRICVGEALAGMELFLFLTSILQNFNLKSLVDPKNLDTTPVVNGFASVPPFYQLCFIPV
T10 sequence (P20815 whole entry): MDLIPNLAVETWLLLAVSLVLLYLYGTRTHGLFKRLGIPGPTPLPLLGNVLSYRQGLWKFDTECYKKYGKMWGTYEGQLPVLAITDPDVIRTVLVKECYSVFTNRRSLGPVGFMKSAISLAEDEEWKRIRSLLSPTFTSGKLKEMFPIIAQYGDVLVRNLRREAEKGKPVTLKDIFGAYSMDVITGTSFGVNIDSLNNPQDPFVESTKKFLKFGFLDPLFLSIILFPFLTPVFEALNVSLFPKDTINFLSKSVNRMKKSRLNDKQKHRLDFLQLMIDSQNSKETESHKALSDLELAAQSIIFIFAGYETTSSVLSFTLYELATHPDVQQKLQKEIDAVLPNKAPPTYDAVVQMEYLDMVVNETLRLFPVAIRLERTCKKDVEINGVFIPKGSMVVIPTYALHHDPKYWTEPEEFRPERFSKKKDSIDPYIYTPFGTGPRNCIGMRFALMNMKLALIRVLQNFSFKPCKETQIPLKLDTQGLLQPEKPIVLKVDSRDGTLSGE
T8 sequence (P05181 whole entry): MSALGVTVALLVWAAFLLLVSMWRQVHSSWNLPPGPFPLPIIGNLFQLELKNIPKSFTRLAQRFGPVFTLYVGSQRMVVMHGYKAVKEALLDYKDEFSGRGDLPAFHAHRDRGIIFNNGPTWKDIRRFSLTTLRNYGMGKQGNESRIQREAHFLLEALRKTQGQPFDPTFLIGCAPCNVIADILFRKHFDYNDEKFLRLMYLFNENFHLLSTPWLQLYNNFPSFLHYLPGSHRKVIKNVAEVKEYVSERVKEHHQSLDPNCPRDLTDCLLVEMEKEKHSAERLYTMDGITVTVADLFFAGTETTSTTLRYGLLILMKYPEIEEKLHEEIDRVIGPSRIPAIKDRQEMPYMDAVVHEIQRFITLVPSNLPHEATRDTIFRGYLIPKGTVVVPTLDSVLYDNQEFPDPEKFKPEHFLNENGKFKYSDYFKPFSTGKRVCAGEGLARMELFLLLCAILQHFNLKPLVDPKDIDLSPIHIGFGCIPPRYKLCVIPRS
T7 sequence (P10635 whole entry): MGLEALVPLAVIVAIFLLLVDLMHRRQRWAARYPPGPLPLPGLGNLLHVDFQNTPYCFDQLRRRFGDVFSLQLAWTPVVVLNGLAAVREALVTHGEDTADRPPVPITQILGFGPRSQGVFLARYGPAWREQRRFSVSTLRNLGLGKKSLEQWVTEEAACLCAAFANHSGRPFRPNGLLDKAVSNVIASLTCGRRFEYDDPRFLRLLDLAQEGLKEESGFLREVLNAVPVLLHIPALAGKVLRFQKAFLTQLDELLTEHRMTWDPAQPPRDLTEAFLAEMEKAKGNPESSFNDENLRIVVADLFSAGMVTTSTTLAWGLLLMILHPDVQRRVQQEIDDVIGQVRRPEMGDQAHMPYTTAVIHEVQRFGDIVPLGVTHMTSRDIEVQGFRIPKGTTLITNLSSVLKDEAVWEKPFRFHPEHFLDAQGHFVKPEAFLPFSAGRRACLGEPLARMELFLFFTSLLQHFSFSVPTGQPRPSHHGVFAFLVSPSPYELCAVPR
T9 sequence (P08684 whole entry): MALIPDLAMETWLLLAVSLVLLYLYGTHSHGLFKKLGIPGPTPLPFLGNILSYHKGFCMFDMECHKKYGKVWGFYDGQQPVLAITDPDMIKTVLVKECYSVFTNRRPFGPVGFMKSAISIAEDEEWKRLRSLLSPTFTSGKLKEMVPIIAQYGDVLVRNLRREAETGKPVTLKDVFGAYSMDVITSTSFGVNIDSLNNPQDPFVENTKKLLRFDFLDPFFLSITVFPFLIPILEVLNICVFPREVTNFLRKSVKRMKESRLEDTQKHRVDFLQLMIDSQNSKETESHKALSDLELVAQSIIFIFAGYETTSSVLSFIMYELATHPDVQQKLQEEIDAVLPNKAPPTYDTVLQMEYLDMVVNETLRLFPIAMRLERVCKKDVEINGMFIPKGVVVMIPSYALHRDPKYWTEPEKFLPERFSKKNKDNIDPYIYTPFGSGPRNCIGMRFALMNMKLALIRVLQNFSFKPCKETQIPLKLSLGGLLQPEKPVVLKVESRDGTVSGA
T6 sequence (P33261 whole entry): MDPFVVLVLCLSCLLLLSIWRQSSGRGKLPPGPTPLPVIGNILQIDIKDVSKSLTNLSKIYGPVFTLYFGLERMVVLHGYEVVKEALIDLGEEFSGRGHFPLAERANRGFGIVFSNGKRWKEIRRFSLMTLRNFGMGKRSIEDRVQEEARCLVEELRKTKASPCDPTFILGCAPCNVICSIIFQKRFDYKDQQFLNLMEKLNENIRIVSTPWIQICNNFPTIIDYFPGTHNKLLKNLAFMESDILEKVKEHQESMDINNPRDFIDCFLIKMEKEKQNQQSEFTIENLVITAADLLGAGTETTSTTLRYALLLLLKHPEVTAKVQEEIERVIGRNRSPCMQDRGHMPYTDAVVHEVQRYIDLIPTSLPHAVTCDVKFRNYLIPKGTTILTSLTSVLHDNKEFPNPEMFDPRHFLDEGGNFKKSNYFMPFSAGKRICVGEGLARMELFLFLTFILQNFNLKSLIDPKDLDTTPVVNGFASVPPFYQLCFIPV

Row | SMILES | one-step metabolite detected in CYP1A2 incubation (CYP1A2; [2]) | one-step metabolite detected in CYP2A6 incubation (CYP2A6; [2]) | one-step metabolite detected in CYP2B6 incubation (CYP2B6; [2]) | one-step metabolite detected in CYP2C8 incubation (CYP2C8; [2]) | one-step metabolite detected in CYP2C9 incubation (CYP2C9; [2]) | one-step metabolite detected in CYP2C19 incubation (CYP2C19; [2]) | one-step metabolite detected in CYP2D6 incubation (CYP2D6; [2]) | one-step metabolite detected in CYP2E1 incubation (CYP2E1; [2]) | one-step metabolite detected in CYP3A4 incubation (CYP3A4; [2]) | one-step metabolite detected in CYP3A5 incubation (CYP3A5; [2]) | one-step metabolite detected in FMO3 incubation [1, 2] | further results
1 | CCNC(CC)C(=O)c1ccc(O)cc1 (centres unmarked) [MO1.1] | + | - | - | - | - | + | + | - | - | - | - | 
2 | CCC(N)C(=O)c1ccc(OC)cc1 (centres unmarked) [MO1.3] | - | - | + | - | - | + | - | - | + | - | - | 
3 | CCC(C(=O)c1ccc(OC)cc1)N(O)CC (centres unmarked) [MO1.4] | + | - | + | + | - | + | + | - | + | + | + | 
4 | CCC(C(=O)c1ccc(O)cc1)N1CCCC1 (centres unmarked) [MO2.2] |  |  |  |  |  |  |  |  |  |  |  | one-step metabolite detected in CYP1A2 incubation (CYP1A2; [3]): +; one-step metabolite detected in CYP2A6 incubation (CYP2A6; [3]): -; one-step metabolite detected in CYP2B6 incubation (CYP2B6; [3]): -; one-step metabolite detected in CYP2C8 incubation (CYP2C8; [3]): -; one-step metabolite detected in CYP2C9 incubation (CYP2C9; [3]): -; one-step metabolite detected in CYP2C19 incubation (CYP2C19; [3]): +; one-step metabolite detected in CYP2D6 incubation (CYP2D6; [3]): +; one-step metabolite detected in CYP2E1 incubation (CYP2E1; [3]): -; one-step metabolite detected in CYP3A4 incubation (CYP3A4; [3]): -; one-step metabolite detected in CYP3A5 incubation (CYP3A5; [3]): -; one-step metabolite detected in FMO3 incubation [1, 3]: -
